Patent US8906860B2, “Methods and compositions inhibiting tumor cell proliferation” (The Board of Trustees of the University of Illinois, priority 2011, dated 2014)
Where two headings read alike, the source gives them in different places. Square brackets hold non-standard residues; d marks the D form. Ends that are not written are not given here.

Tests used:
HCC = settings: cited from earlier work
[1] = test system: CMV-TETO GFP-Foxm1b U2OS clone C3 cells; experiment: Soft agar colony formation, Doxycycline induced GFP-FoxM1B U2OS clone C3 cells; assay type: cell-based, human; settings: 12 μM peptide, 1 μg/ml Doxycycline, two weeks
Description: (§1) The T-REx™-U2OS cells were purchased from Invitrogen Life Technologies (Catalog No. R712-07). The T-REx™-U2OS cells express the Tet repressor from pCEP4/tetR that was episomally maintained in tissue culture medium containing 10% fetal calf serum and drug selection with 50 μg/ml of Hygromycin B. Tetracycline regulation in the T-REx System was based on the binding of tetracycline to the TET repressor and de-repressing of the CMV-TETO promoter controlling expression of the gene of interest (Yao et al., 1998, Hum Gene Ther 9:1939-1950). The pcDNA4-TO GFP-FoxM1B expression plasmid provided in the T-REx™ system was generated as described previously (Major et al., 2004, Mol. Cell. Biol. 24:2649-2661) and transfected T-REx™-U2OS cells with linearized pcDNA4-TO GFP-Foxm1b expression plasmid to select clonal Doxycycline inducible GFP-Foxm1b U2OS cell lines. CMV-TETO GFP-FoxM1B U2OS clones were isolated by selection for three weeks with tissue culture medium containing 50 μg/ml of Hygromycin B and 250 μg/ml of Zeocin. […] Wild type U2OS cells or CMV-TETO GFP-Foxm1b U2OS clone C3 cells were grown in medium with or without 1 μg/ml of Doxycycline for 2 days prior to either adding the (D-Arg)9-p19^ARF 26-44 peptide or left untreated. […] U2OS cell colonies that were larger than 1 mm in size were scored after two weeks of growth on the soft agar.

parental U2OS cells = experiment: Soft agar colony formation, parental U2OS cells; assay type: cell-based, human; settings: 12 μM peptide, two weeks
Description: as §1

[2] = test system: FoxM1B transcriptional activity; experiment: FoxM1B transcriptional activity, 6xFoxM1B TATA-luciferase reporter assay in transfected U2OS cells; assay type: cell-based, human; settings: 12 μM peptide, 24 hours
Source text: A 6×FoxM1B/FoxA TATA-Luciferase utilized 6 copies of the FoxM1B/FoxA binding site (TTTGTTTGTTTG; SEQ ID NO: 6) from the cdx-2 promoter region driving expression of the CMV-TATA box luciferase reporter gene as described previously (Rausa et al., 2003, Mol. Cell. Biol. 23:437-449; Samadani et al., 1996, Mol. Cell. Biol. 16:6273-6284; Ye et al., 1997, Mol. Cell Biol. 17:1626-1641).
Inhibiting Cdk1 activity with either dominant negative (DN) Cdk1 or a pharmacologically active concentration of Alsterpaullone (1 μM) caused an 80% to 90% reduction in FoxM1B transcriptional activity (FIG. 6C). […] Consistent with these findings, stimulation of Cdk1 activity by co-transfection of either CMV Cdc25B or Cdc25C phosphatases enhanced FoxM1B transcriptional activity by 3.4-fold and 1.7-fold, respectfully (FIGS. 6B and 6D). […]
Human osteosarcoma U2OS cells were maintained in DMEM supplemented with 10% fetal calf serum, 1×Pen/Strep and 1×L-Glutamine (Gibco). […] Luciferase activity was determined as percent of wild type FoxM1B activity following normalization to Renilla activity. Experiments were performed at least four times in triplicate and mean±SD determined. […]

[3] = test system: p53 null thymic lymphoma cells; experiment: Kidney colonization of intravenously injected p53 null thymic lymphoma cells in SCID mice; assay type: in vivo, mouse; settings: 2.5 mg/kg intraperitoneal every other day, 10 injections
Description: These experiments were performed to determine if modifying the termini conferred any advantages on these peptides when administered to an animal. Both wild type ARF 26-44 (rrrrrrrrrKFVRSRRPRTASCALAFVN) (SEQ ID NO 10) and mutant ARF 37-44 (rrrrrrrrrSCALAFVN) (SEQ ID NO 21) peptides were synthesized by Genemed Synthesis Inc. (San Antonio, Tex.). The N-terminus of each peptide was fused with nine D-Arg(r) residues. Both wild type and mutant peptides were blocked with amidation on C-terminus and acetylation on N-terminus. For sarcoma cells, mice were treated with 5 mg/kg body weight of peptide every other day for 10 times. For lymphoma cells, mice were treated with 2.5 mg/kg body weight of peptide every other day for 10 times.
To test the therapeutic effect of the ARF-peptide on p53 null tumors in vivo, p53 null lymphoma/sarcoma cells were introduced into the circulation of SCID mice through intravenous injection. ICR SCID mice were obtained from Taconic Farms (Germantown, N.Y.). Both p53 null sarcoma and lymphoma cells were stably transduced before injection with lentivirus carrying a gene conferring luciferase expression. Specifically, cells were stably transduced with pFU-L2G luciferase construct obtained from Sanjiv Sam Gambhir (M. D., Ph.D) of Stanford University as optimized by Dr. Huiping Liu (Liu et al., Proc Natl Acad Sci USA, 107: 18115-18120). This construct enabled expression of both the bioluminescence and green fluorescence protein. eGFP positive cells were sorted by Beckman Coulter MoFlo. 3×10^6 cells were suspended in cold PBS and injected through the tail vein of SCID mice. Live animal imaging was performed using an IVIS Spectrum optical imaging machine (Caliper Life Sciences, Alameda, Calif.). […] Mice were randomized into three groups and were treated with PBS, mutant-peptide or the wild type ARF-peptide for 10 injections every other day by intraperitoneal injection. […] The mice were sacrificed and lung sections were analyzed for tumor colonies. […] For the p53 null thymic lymphoma cells, metastatic growth in kidney was observed, consistent with murine thymic lymphoma cells having a tendency to colonize kidney, liver and spleen (Aoudjit et al., 1998, Blood, 91: 623-629).

GFP-FoxM1B = experiment: Nuclear localization of transfected GFP-FoxM1B in U2OS cells; assay type: cell-based, human; settings: 1 μM
Source text: FIGS. 7A-H show nuclear localization of GFP-FoxM1B fusion protein following treatment with either pharmacological kinase inhibitors or dominant negative kinases. U20S cells were transiently transfected with CMV GFP-FoxM1B with the indicated pharmacological kinase inhibitors (B-D) or dominant-negative kinase expression vectors (E-H). Cells in panel (A) were untreated.
U2OS cells were transiently transfected in 2 well chamber slides (Nunc) with CMV GFP-FoxM1B expression constructs in the presence or absence of either CMV WT T7-p19^ARF, CMV HA-p19^ARF, or CMV expression constructs containing either N-terminal mutant T7-p19^ARF proteins (Δ1-14, Δ15-25, or Δ26-37) or V5-TAT-p19^ARF proteins (26-44; SEQ ID NO: 11, or 26-55; SEQ ID NO: 12). U2OS cells were transiently transfected with CMV EGFP expression vector containing the TAT-p19^ARF proteins (26-44; SEQ ID NO: 11, or 26-55; SEQ ID NO: 12). Forty-eight hours post transfection, cells were fixed in 4% Para-formaldehyde for 20 minutes at room temperature. GFP fluorescence or immuno-fluorescence with anti-HA antibody following TRITC conjugated secondary antibody was detected using a Zeiss microscope. U2OS cells were treated with 12 μM of the rrrrrrrrrKFVRSRRPRTASCALAFVN (SEQ ID NO: 10) peptide for 24 hours and then analyzed for TRITC fluorescence as described above.

S2 cells = settings: 24 hours
Description: TUNEL assay was used to measure apoptosis in S2 cells treated with WT-blocked, mutant-blocked or WT-unblocked (D-Arg)9-p19^ARF 26-44 peptides. (D-Arg)9-p19^ARF 26-44 peptide treatment of cells was performed in 8-well chamber slides for TUNEL staining. On Day 0, 20,000 cells per well were seeded in the 8-well chamber slides. On Day 1, slides were replenished with fresh media containing one of the following concentrations of either WT-blocked, mutant-blocked or WT-unblocked (D-Arg)9-p19^ARF 26-44 peptides: 10, 15, 25, 30, 40 and 70 μM for 24 hours. On Day 2, TUNEL staining was performed following the manufacture's protocol (ApopTag® Fluorescein In Situ Apoptosis Detection Kit from CHEMICON® International, S7110). The percent of apoptosis of S2 cells (±SD) was measured by counting the number of TUNEL-positive cells (green fluorescence) per 1,000 nuclei as visualized by DAPI (blue fluorescence) counterstaining. The experiment was repeated in a second experiment using the same protocol. Statistical analysis and EC50 calculation were performed using GraphPad Prism software.

## rrrrrrrrrKFVRSRRPRTASCALAFVN ([dR][dR][dR][dR][dR][dR][dR][dR][dR]KFVRSRRPRTASCALAFVN; not fully specified (N-terminus, C-terminus); printed as rrrrrrrrrKFVRSRRPRTASCALAFVN; also: end groups differ between preparations (TRITC N-term/acetyl C-term vs Ac N-term/amide C-term); listed as Mus musculus) [(D-Arg)9-p19^ARF 26-44 peptide, p19ARF 26-44 peptide containing nine D-Arg residues at the N-terminus]
HCC; mouse HCC (DEN/PB induced)
  HCC tumor size / progression: effective in diminishing tumor size in HCC
HCC; mouse HCC cells
  Metastasis of HCC cells: effectively prevented pulmonary metastasis of HCC cells
[1]
  FoxM1B induced colony formation on soft agar: significantly diminished the ability of induced GFP-FoxM1B to stimulate colony formation
Parental U2OS cells
  Colony formation on soft agar: significantly diminished the ability of the parental U2OS cells to form colonies on soft agar
[2]
  Effect on FoxM1B transcriptional activity: significant reduction in FoxM1B transcriptional activity

## rrrrrrrrrSCALAFVN (SCALAFVN-NH2; not fully specified (N-terminus); printed as rrrrrrrrrSCALAFVN; UniProt Q64364 37-44, looked up, fragment) [mutant ARF peptide, reference compound]
[3]
  Kidney tumor mass at sacrifice: large tumor masses were found in the kidney
[3]; around 20 days after inoculation
  Luciferase signal from colonized lymphoma cells: displayed strong luciferase signals

## O=C1Cc2c([nH]c3ccc([N+](=O)[O-])cc23)-c2ccccc2N1 [Alsterpaullone]
GFP-FoxM1B
  Nuclear localization of transfected CMV GFP-FoxM1B protein: Neither DN-Cdk1 nor Alsterpaullone (1 μM) altered nuclear localization

## rrrrrrrrrKFVRSRRPRTASCALAFVN (not fully specified (N-terminus, C-terminus); printed as rrrrrrrrrKFVRSRRPRTASCALAFVN; UniProt Q64364 26-44, looked up, fragment) [WT Unblocked]
S2 cells; Experiment 1, 10 μM/Well
  % of TUNEL Positive S2 Cells, Mean: 2.46%
S2 cells; Experiment 1, 25 μM/Well
  % of TUNEL Positive S2 Cells, Mean: 1.27%
S2 cells; Experiment 1, 30 μM/Well
  % of TUNEL Positive S2 Cells, Mean: 5.59%
S2 cells; Experiment 1, 40 μM/Well
  % of TUNEL Positive S2 Cells, Mean: 19.94%
S2 cells; Experiment 2, 10 μM/Well
  % of TUNEL Positive S2 Cells, Mean: 6.79%
S2 cells; Experiment 2, 15 μM/Well
  % of TUNEL Positive S2 Cells, Mean: 7.56%
S2 cells; Experiment 2, 25 μM/Well
  % of TUNEL Positive S2 Cells, Mean: 11.19%
S2 cells; Experiment 2, 40 μM/Well
  % of TUNEL Positive S2 Cells, Mean: 20.51%
S2 cells; Experiment 2, 70 μM/Well
  % of TUNEL Positive S2 Cells, Mean: 30.34%
S2 cells; S2 cells, 10-70 μM
  Apoptosis induction compared between peptides (TUNEL): showed some activity compared to the mutant-blocked peptide at doses higher than 30 μM
